Consider three compounds from US4237273A, “Bis(nitrosoureido)-polyol derivatives” (Richter Gedeon Vegyeszeti Gyar RT, priority 1977, dated 1980).

In one data set the test system is Yoshida s.c. sarcoma. Nature of the data set: Antitumour activity, Yoshida s.c. sarcoma, tumour weight (Table 3). In kind it is in vivo, CFY rats. The conditions noted are these: from the 2nd day. As to the method:
(§1) The leukemia and ascites type tumours were transplanted intraperitoneally, using an amount of 10^5 -10^7 cells, while in the case of solid tumours, small pieces of tumours were implanted subcutaneously with a trocar. Treatment:
(§2) Mice were treated with a volume of 0.1 ml./10 g. body-weight of a suspension of the tested compounds in water containing 2% of Tween-80, while rats were treated with a volume of 0.1 ml./100 g. bodyweight of a suspension of the tested compounds in water containing 5% of Tween-80.
(§3) In the case of solid tumours (Harding-Passey melanoma, S-180 and Yoshida sarcoma) the tumours were removed on the 8 to 14th day, and the inhibition was calculated by the weight of the tumours, using the following formula: [formula]

Data set [1] can be described thus: Acute toxicity (LD50), 21 days observation. The class given is in vivo. The note with it: mouse, in vivo, BDF1 mice of both sexes. As for the experimental part: Species: BDF1 mice of both sexes
Treatment: a volume of 0.2 ml./10 g. body weight of a suspension of the tested compounds in water containing 2% of Tween-80 was used.
Number of animals: 10/dose
Observation time: 21 days

For the next data set, the system named is Rausher leukemia. Kind of data set: Antitumour activity, Rauscher leukemia, spleen weight (Table 3). In kind it is in vivo, CFLP mice. The conditions noted are these: from the 2nd day. As to the method: as §1, §2, §3
A similar method was applied in the case of the Rauscher leukemia too, but the weight of the spleen was taken, instead of the tumour, in the formula mentioned above.

In the next data set the test system is Ehrlich acites carcinoma. Nature of the data set: Antitumour activity, Ehrlich ascites carcinoma (Table 2). The class given is in vivo, CFLP mice. The note with it: 1.0 mg./kg. 5× i.p., from the 2nd day. As to the method: as §1, §2
(§4) The ascites and leukemia-type tumours were evaluated with the exception of the Rausher leukemia by the increase of the life span and by complete recovery. [formula]
(§5) Recovery=90 days of tumour free life after transplantation.

Another data set has as its system L-120 leukemia. Kind of data set: Antitumour activity, L-1210 leukemia (Table 2). The conditions noted are these: from the 2nd day; for Recovery (90 day survival): animals recovered/treated. In kind it is in vivo, BDF1 mice. As for the experimental part:
as §1, §2, §4, §5

In a further data set the test system is P-388 leukemia. Nature of the data set: Antitumour activity, P-388 leukemia (Table 2). In kind it is in vivo, BDF1 mice. The note with it: 3.0 mg./kg. 4× i.p., from the 2nd day. As to the method: as §1, §2, §4, §5
A further data set deals with Harding-Passey melanoma. Kind of data set: Antitumour activity, Harding-Passey melanoma, tumour weight (Table 3). The class given is in vivo, CFLP mice. The note with it: from the 4th day after transplantation. As to the method: as §1, §2, §3
The test system of a further data set is NK/Ly ascites lymphoma. Kind of data set: Antitumour activity, NK/Ly ascites lymphoma (Table 2). The class given is in vivo, CFLP mice. The conditions noted are these: from the 2nd day; for Recovery (90 day survival): animals recovered/treated. As for the experimental part: as §1, §2, §4, §5
[2] abbreviates: ip, i.p., read-out: LD50 value i.p.
The mark [3] stands for this setting: po, p.o., read-out: LD50 value p.o.

Molecules are shown by their SMILES. Like-named read-outs stand apart in the source and are kept apart here.

With `O=NN(CCCl)C(=O)NC[C@@H](O)[C@H](O)CN(N=O)C(=O)NCCCl` (racemic) [Compound 4, 1-[3-(2-chloroethyl)-3-nitrosoureido]-4-[3-(2-chloroethyl)-1-nitrosoureido]-1,4-dideoxy-D,L-threitol], the “Inhibition (tumour weight)” value is listed as 50% in the data set with Yoshida s.c. sarcoma (3 mg./kg. 4× p.o.) and 82% in the data set on Yoshida s.c. sarcoma (10 mg./kg. 4× i.p.). The LD50 at 504 h in data set [1] (setting [2]) was 80 mg/kg; in data set [1] (setting [3]), 130 mg/kg. Besides, the “Inhibition (spleen weight)” value in the data set with Rausher leukemia (10.0 mg./kg. 4× i.p.) and in the data set with Rausher leukemia (10.0 mg./kg. 4× p.o.) was 100% each time.

With `O=NN(CCCl)C(=O)NC[C@@H](O)[C@H](O)CNC(=O)N(CCCl)N=O` (racemic) [Compound 5, 1,4-bis[3-(2-chloroethyl)-3-nitrosoureido]-1,4-dideoxy-D,L-threitol], the “Inhibition (tumour weight)” value in the data set with Yoshida s.c. sarcoma (3 mg./kg. 4× p.o.) stood at 62%; in the data set on Yoshida s.c. sarcoma (10 mg./kg. 2× p.o.), 99%. The LD50 at 504 h in data set [1] (setting [2]) was 40 mg/kg; in data set [1] (setting [3]) it was 75 mg/kg. In addition, the “Inhibition (spleen weight)” value was 75% in the data set on Rausher leukemia (3.0 mg./kg. 4× i.p.) and 100% in the data set on Rausher leukemia (10.0 mg./kg. 4× p.o.).

On to `O=NN(CCCl)C(=O)N[C@H]1C[C@@H](NC(=O)N(CCCl)N=O)[C@H](O)[C@@H](O)[C@@H]1O` [Compound 3, 1,3-bis[3-(2-chloroethyl)-N-nitriosoureido]-1,2,3-trideoxyscylloinositol], for which the “Inhibition (tumour weight)” value is reported as 86% in the data set with Yoshida s.c. sarcoma (10 mg./kg. 4× i.p.), 54% in the data set on Harding-Passey melanoma (3.0 mg./kg. 9× i.p.) and 38% with Harding-Passey melanoma (10.0 mg./kg. 9× p.o.). For the same compound, the LD50 at 504 h in data set [1] (setting [2]) was found to be 40 mg/kg; in data set [1] (setting [3]) it was 100 mg/kg. For the same compound, the “Increase in life span” value in the data set with Ehrlich acites carcinoma is 46%; in the data set on L-120 leukemia (10.0 mg./kg. 4× p.o.) it was 61%; with L-120 leukemia (15.0 mg./kg. 1× i.p.), 180%; in the data set with P-388 leukemia, 101%; in the data set with NK/Ly ascites lymphoma (10.0 mg./kg. 4× p.o.) it was 61%. The “Recovery (90 day survival)” value with Ehrlich acites carcinoma (animals recovered/treated) is recorded as 2/7; in the data set with L-120 leukemia (10.0 mg./kg. 4× p.o.) it was 1/7; with L-120 leukemia (15.0 mg./kg. 1× i.p.), 5/8; in the data set on P-388 leukemia (animals recovered/treated), 0/8; in the data set on NK/Ly ascites lymphoma (0.1 mg./kg. 4× (route not given)), 7/7; with NK/Ly ascites lymphoma (10.0 mg./kg. 4× p.o.), 1/7. Further, the “Inhibition (spleen weight)” value with Rausher leukemia (10.0 mg./kg. 6× i.p.) turned out to be 100%.
